Experimental data published in paper PMC4821856, “Novel Anti-Campylobacter Compounds Identified Using High Throughput Screening of a Pre-selected Enriched Small Molecules Library” (Frontiers in Microbiology, 2016).
Values after ≈ are worked out from the molar mass of the structure shown. Where two headings read alike, the source gives them in different places.

Legend:
[1] = system: C. jejuni 81-176 in Caco-2 cells; experiment: Intracellular survival / in vitro clearance of C. jejuni in infected Caco-2 cells; type: cell-based, Campylobacter jejuni; conditions: for minimal effective concentration: Campylobacter jejuni, C. jejuni 81–176 infected Caco-2 cells, compounds at 200, 100, 50, 25 μM for 24 h, read-out: In vitro Concentration (in vitro clearance ability); for Intracellular Campylobacter load (below detection limit): 50 μM, 24 h
Description: To test the effect of selected compounds on C. jejuni in vitro clearance, Caco-2 cells were infected with C. jejuni 81-176 strain and a 96 well intracellular survival assay was performed as described previously (Malde et al., [2014]; Pina-Mimbela et al., [2015]). Briefly, a mid-log phase C. jejuni 81–176 culture was pelleted by centrifuging at 9500 × g for 10 min and washed three times with Dulbecco Phosphate Buffer Saline (DPBS, Gibco) containing 1% (v/v) FBS and adjusted to the desired OD600. Approximately 1.4 × 10^5 Caco-2 cells/well were seeded in 100 μL of media containing varying concentration of compounds into each well of a 96 well plate and subsequently infected with C. jejuni at multiplicity of infection (MOI) 100 in duplicate wells. To determine clearance, Caco-2 cells were incubated with bacteria for 3 h and treated with gentamicin (150 μg/mL) and incubated for additional 2 h. Cells were washed three times with DPBS with no calcium or magnesium and incubated with 1 μL of diluted compounds (200, 100, 50, and 25 μM) for 24 h. Infected cells were washed twice with MEM, lysed with 0.1% (v/v) Triton-X 100. Subsequently, 100 μL of an aliquot from each well was 10-fold serially diluted in MEM and plated on MH agar in duplicate to determine CFUs. The appropriate controls included; (i) infected Caco-2 cell treated with kanamycin or chloramphenicol, (ii) infected Caco-2 cells treated with 1 μL of 100% Trition-X, (iii) infected Caco-2 treated with 1 μL of 100% DMSO. Two independent experiments were carried with duplicate treatments in each experiment and the average CFU value was used to plot the graph.
The in vitro clearance ability and cytotoxicity of compounds were analyzed using one-way analysis of variance with mean separation by a least significant difference test at 5% level of significance in GraphPad Prism version 6 software.

C. jejuni 81–176 [2] = experiment: Minimum bactericidal concentration (MBC); type: cell-based, Campylobacter jejuni; conditions: for MBC: Campylobacter jejuni, read-out: C. jejuni MBC (minimum bactericidal concentration)
Description: The percentage of C. jejuni growth inhibition was calculated as mentioned previously (De La Fuente et al., [2006]) using the following formula: percentage of inhibition = 100 × (OD negative control–OD test compound)/(OD negative control–OD positive control). Compounds that inhibited Campylobacter growth ≥ 99.0% were selected as primary hits. The culture in wells with ≥ 99% growth inhibition were streaked onto fresh MH agar, as were the sterility, antibiotic and no compound control wells. Bacterial growth was measured on the plate after 48 h at 42°C. Based on the recovery of C. jejuni on MH agar plates, the compound was classified as either “bacteriostatic” or “bactericidal.”
(§1) Minimum inhibitory concentration value not necessarily indicates the killing concentration; therefore, we determined MBC for the top-12 compounds. MBC is defined as the concentration at which 99.9% (below detection limit) of Campylobacter organisms are killed. The MBC for each of these compounds were determined as described previously (Ling et al., [2015]). […] Overall MIC and MBC values were higher for C. coli compared to C. jejuni strain. The MIC and MBC for these 12 compounds for both C. jejuni and C. coli are presented in (Table 1).

C. coli ATCC 33559 [3] = experiment: Minimum bactericidal concentration (MBC); type: cell-based, Campylobacter coli; conditions: for MBC: Campylobacter coli
Description: (§2) Initially we re-confirmed the efficacy of the 79 resynthesized compounds against C. jejuni 81–176 and C. coli ATCC 33559.
as §1

C. jejuni 81–176 [4] = experiment: Single step resistance assay at lethal dose (5X MIC) on solid media; type: cell-based, Campylobacter jejuni; conditions: solid MH agar with 5X MIC, 5 days, 42°C; resistant colonies observed yes/no
Description: Single step and sequential passage resistance assays were performed as described previously with a few modifications (Ling et al., [2015]; Xu et al., [2015]). The top 12 hit compounds were tested in this experiment. The MIC values for each of these 12 compound as determined in above assay was used for C. jejuni resistance studies using lethal (5X MIC) and sub-lethal (0.5X MIC) concentrations.
Campylobacter jejuni grown in MH medium overnight at 42°C was centrifuged at 4700 × g for 10 min at room temperature. The supernatant was discarded and the bacteria were resuspended in MH broth to an OD600 of 1.0 (~1 × 10^9 CFU). Compounds (5X MIC) were mixed with 5 ml of molten MH agar medium and transferred immediately onto small 35 mm petri-plates, agar in the plate was allowed to solidify in the dark. Ten micro liter of culture was transferred to the small molecule containing plates and spread using sterile beads, plates were incubated at 42°C for 5 days in the dark. Bacteria spread on MH agar with 50 μg/mL kanamycin or MH agar alone, were used as positive and negative controls, respectively. After 5 days of incubation, any colonies that developed were assessed for resistance to the test compounds by determining MIC and the MBC as noted above.
Our rationale for performing the resistance studies was to determine the ability of C. jejuni strain to develop resistance to these compounds when cultured on solid media with a lethal dose (5X MIC) or in liquid media with a sub-lethal dose (0.5X MIC). The presence of resistant colonies in any of these assays would reduce the attractiveness of the relevant small molecule while an absence of resistant colonies would indicate a likely inability of C. jejuni to develop resistance in general. […] Since C. jejuni is the major cause of human campylobacteriosis (95% of the cases); (Butzler, [2004]) and due to limitation of compounds availability, we only performed resistance studies on C. jejuni 81–176. However, for future commercial application of these antimicrobials, more in-depth characterization of potential resistance by other C. jejuni strains and C. coli is warranted.

C. coli ATCC 33559 [5] = experiment: Minimum inhibitory concentration (MIC); type: cell-based
Description: The dose-dependent effect of 35 compounds against the highly pathogenic C. jejuni 81–176 strain was tested. Compounds were two-fold serially diluted (200 to 12.5 μM). One hundred micro liter of the OD600 0.1 adjusted C. jejuni culture was pipetted in to each well of a 96 well plate, treated with 1 μL of diluted compound and the plate was incubated at 42°C under microaerobic conditions for 24 h. Growth inhibition was assessed as above.
as §2, §1

[6] = concentration at which 99.9% of organisms are killed
[7] = ATCC33559, concentration at which 99.9% of organisms are killed, read-out: C. coli MBC
[8] = Campylobacter coli, ATCC33559; read-out: C. coli MIC
[9] = ATCC33559, read-out: C. coli MBC
[10] = Campylobacter coli, ATCC33559, read-out: C. coli MIC

SMILES	minimal effective concentration [1]	MBC relative to MIC for C. jejuni (C. jejuni 81–176 [2])	MBC (C. jejuni 81–176 [2]; [6])	MBC relative to MIC for C. coli (C. coli ATCC 33559 [3])	MBC (C. coli ATCC 33559 [3]; [7])	Resistance, single step 5X MIC (C. jejuni 81–176 [4])	MIC (C. coli ATCC 33559 [5]; [8])	MBC (C. jejuni 81–176 [2])	MBC (C. coli ATCC 33559 [3]; [9])	MIC (C. coli ATCC 33559 [5]; [10])	Intracellular Campylobacter clearing ability ([1]; 25 μM (eight-fold dilution))	Intracellular Campylobacter load (below detection limit) [1]	Intracellular C. jejuni clearance (in vitro effect) ([1]; infected Caco-2 cells, overall)
O=S(=O)(Nc1cccc(C(F)(F)F)c1)c1ccc(Br)cc1 [Comp 1]	200 µM	same as that of their MIC	50 µM (≈ 19 µg/mL)	same as that of their MIC	50 µM (≈ 19 µg/mL)	No	50 µM (≈ 19 µg/mL)						
COc1ccc(CN2CCN(c3ccc(F)cc3)CC2)cc1C [Comp 2]		same as that of their MIC		two-fold higher		No		100 µM (≈ 31.4 µg/mL)	100 µM (≈ 31.4 µg/mL)	50 µM (≈ 15.7 µg/mL)			
CN(C)c1ccc(CN2CCN(c3ccccc3Cl)CC2)cc1 [Comp 3]		two-fold higher		same as that of their MIC		No		25 µM (≈ 8.25 µg/mL)	50 µM (≈ 16.5 µg/mL)	50 µM (≈ 16.5 µg/mL)			
Clc1ccc(N2CCN(Cc3ccsc3)CC2)cc1 [Comp 4]	> 200 µM	same as that of their MIC	50 µM (≈ 14.6 µg/mL)	two-fold higher	100 µM (≈ 29.3 µg/mL)	No	50 µM (≈ 14.6 µg/mL)						
Cc1ccc(N2CCN(C/C=C/c3ccccc3)CC2)cc1 [Comp 5]	> 200 µM	same as that of their MIC	50 µM (≈ 14.6 µg/mL)	same as that of their MIC	50 µM (≈ 14.6 µg/mL)	No	50 µM (≈ 14.6 µg/mL)						
O=c1c(Cl)c(Cl)cnn1-c1ccccc1Cl [Comp 7]	25 µM	same as that of their MIC	12.5 µM (≈ 3.44 µg/mL)	same as that of their MIC	50 µM (≈ 13.8 µg/mL)	No	50 µM (≈ 13.8 µg/mL)				complete intracellular Campylobacter clearing ability	≤ 10 bacteria/mL	
Cc1c(C(C)NCc2cccc(OC3CCCC3)c2)cnn1-c1ccccc1 (centres unmarked) [Comp 10]	50 µM	same as that of their MIC	50 µM (≈ 18.8 µg/mL)	same as that of their MIC	100 µM (≈ 37.6 µg/mL)	No	100 µM (≈ 37.6 µg/mL)					≤ 10 bacteria/mL	
COc1ccc(CNCc2ccc(Cl)s2)cc1OCC(O)CN1CCCC1 (centres unmarked) [Comp 12]	100 µM	same as that of their MIC	100 µM (≈ 41.1 µg/mL)	two-fold higher	100 µM (≈ 41.1 µg/mL)	No	50 µM (≈ 20.5 µg/mL)						
CN(Cc1cccc2cnccc12)CC1CCCN(CCc2ccc(F)cc2)C1 (centres unmarked) [Comp 13]	> 200 µM	two-fold higher	25 µM (≈ 9.79 µg/mL)	same as that of their MIC	50 µM (≈ 19.6 µg/mL)	No	50 µM (≈ 19.6 µg/mL)						lacked in vitro effect
CN(CC(O)COc1ccccc1CNC1(c2ccccc2)CC1)C1CCCCC1 (centres unmarked) [Comp 17]	> 200 µM	two-fold higher	25 µM (≈ 10.2 µg/mL)	same as that of their MIC	50 µM (≈ 20.4 µg/mL)	No	50 µM (≈ 20.4 µg/mL)						
CN(Cc1ccccc1)CC1CCCN(CCc2ccc(F)cc2)C1 (centres unmarked) [Comp 18]	100 µM	same as that of their MIC	25 µM (≈ 8.51 µg/mL)	two-fold higher	> 200 µM	No	200 µM (≈ 68.1 µg/mL)						
CC(=O)Nc1ccc(CN(C)CC2CCCN(CCc3cccc(C(F)(F)F)c3)C2)cc1 (centres unmarked) [Comp 22]	100 µM	two-fold higher	25 µM (≈ 11.2 µg/mL)	same as that of their MIC	100 µM (≈ 44.8 µg/mL)	No	100 µM (≈ 44.8 µg/mL)						
